Assay results published in the supplement of paper PMC10307832.

The cell lines below were run with Cc1nc(C(=O)NCC(=O)O)c(O)c2ccc(Oc3ccccc3)cc12 [FG-4592] + COc1cc2c(Oc3ccc(NC(=O)C4(C(=O)Nc5ccc(F)cc5)CC4)cc3F)ccnc2cc1OCCCN1CCOCC1 [Foretinib] (partner 0.25 µM) (assay: relative viability (nuclei count vs DMSO), 5 days (fraction); higher = more cells survive). Conditions: first compound 0.08 µM.
In short: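 Relative viability equals treated-well nuclei counts divided by vehicle-well nuclei counts. Counts came from 4× images of lung cancer cell lines grown in 1536-well plates for 5 days after pin-tool dosing on the day after seeding. Dosing used one drug alone or a fixed anchor-drug dose plus five library-drug doses (not always all listed) in √10 steps, and values are medians of duplicate plates.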

Cell Line	relative viability
NCI-H2170	1.01
NCI-H2405	0.962
HOP-62	1.13
LU99A	0.789
BEN	0.522
HARA	0.834
HCC-78	0.556
NCI-H322M	0.87
LCLC-97TM1	0.9
NCI-H2009	1.21
A-427	0.98
NCI-H441	0.956
NCI-H1734	0.792
NCI-H460	0.986
SK-LU-1	0.866
NCI-H1395	1.06
201T	1.11
NCI-H1915	1.09
HCC-827	1.06
LXF-289	0.97
NCI-H23	1.01
NCI-H647	1.19
CAL-12T	1.05
NCI-H1651	0.863

Same assay, conditions: first compound 0.253 µM

Cell Line	relative viability
COR-L 105	1.06
LOU-NH91	0.879
ChaGo-K-1	0.834
NCI-H2170	0.962
HOP-62	1.03
LU99A	0.791
BEN	0.597
HARA	0.87
HCC-78	0.561
NCI-H322M	0.937
LCLC-97TM1	0.901
NCI-H2009	1.11
A-427	1.11
NCI-H441	0.896
NCI-H1734	0.812
NCI-H460	1.04
NCI-H2347	0.618
SK-LU-1	0.646
NCI-H1395	0.889
201T	1.04
NCI-H1915	1.06
HCC-827	0.899
LXF-289	0.981
NCI-H23	0.856
NCI-H647	1.07
CAL-12T	0.746
NCI-H1651	0.773

Same assay, conditions: first compound 0.8 µM

Cell Line	relative viability
COR-L 105	1.2
LOU-NH91	0.917
ChaGo-K-1	0.919
NCI-H2170	1.03
NCI-H2405	1.03
HOP-62	1.12
LU99A	0.743
BEN	0.607
HARA	0.896
HCC-78	0.52
NCI-H322M	0.903
LCLC-97TM1	0.876
NCI-H2009	1.13
A-427	1.03
NCI-H441	0.931
NCI-H1734	0.806
NCI-H460	1.04
NCI-H2347	0.885
SK-LU-1	0.767
NCI-H1395	0.981
NCI-H1915	1.22
HCC-827	1.04
LXF-289	0.993
NCI-H23	0.973
NCI-H647	1.18
CAL-12T	1.06
NCI-H1651	0.88

Same assay, conditions: first compound 2.53 µM

Cell Line	relative viability
COR-L 105	0.96
LOU-NH91	0.868
ChaGo-K-1	0.973
NCI-H2170	1.04
NCI-H2405	1.02
HOP-62	1.05
LU99A	0.879
BEN	0.764
HARA	0.885
HCC-78	0.541
NCI-H322M	0.975
LCLC-97TM1	0.887
NCI-H2009	1.14
A-427	0.98
NCI-H441	0.841
NCI-H1734	0.884
NCI-H460	1.03
NCI-H2347	0.857
SK-LU-1	0.881
NCI-H1395	0.997
201T	1.15
NCI-H1915	1.12
HCC-827	1.03
LXF-289	0.974
NCI-H23	0.999
NCI-H647	0.815
CAL-12T	1.02
NCI-H1651	0.901

Same assay, conditions: first compound 8 µM

Cell Line	relative viability
COR-L 105	0.718
LOU-NH91	0.91
ChaGo-K-1	0.897
NCI-H2170	0.915
NCI-H2405	1.14
HOP-62	0.986
LU99A	0.808
BEN	0.464
HARA	0.878
HCC-78	0.576
NCI-H322M	0.91
LCLC-97TM1	0.866
NCI-H2009	1.11
A-427	1.18
NCI-H441	1.01
NCI-H1734	0.75
NCI-H460	1.03
NCI-H2347	1.04
SK-LU-1	0.631
NCI-H1395	0.963
201T	1.07
NCI-H1915	1
HCC-827	1.06
LXF-289	1.12
NCI-H23	0.966
NCI-H647	0.782
CAL-12T	1.01
NCI-H1651	0.839
